Test [1] relates to mice. The experiment in a line: CECAL (Charcoal Meal Test). In kind it is in vivo. To be noted: Mus musculus, po; i.g., 1 hour prior to the charcoal meal; antidiarrheal effect; read-out: Cecal Test (CT) ED50. The procedure: The antidiarrheal effect of the compounds of the present invention are shown by the following test:
CECAL (Charcoal Meal Test)
Mice weighing 18-24 grams and previously fasted for 24 hours are each given orally 0.2 ml of a suspension containing 10% charcoal and 1% methylcellulose. The test compounds are administered intragastrically 1 hour prior to the charcoal meal. 3.5 Hours after administration of the meal the mice are sacrificed by cervical dislocation and the cecum is examined for the presence or absence of charcoal on an all or none basis. Each compound is tested at three dose levels (typically 30, 10, 3 mg/kg) in groups of 6 mice per dose level. Control groups of mice given vehicle only were run concurrently with each test group.

Test [2] deals with mice. The experiment in a line: Mouse Hot Plate Test. It counts as in vivo. To be noted: for ED50: Mus musculus, printed "mg/kg k.g.", hot plate 55± 0.3° C., analgesic effect, read-out: Hot Plate (HP) ED50; for Relative Constipation Specificity HP/CT: ratio of Hot Plate ED50 to Cecal Test ED50. The procedure: The assessment of the analgesic effect of the instant compounds was conducted in the mouse hot plate and tail clip tests.
A mouse (adult male weighing 18-25 grams) is placed in a restraining cylinder on a hot plate with the temperature controlled at 55± 0.3° C. The reaction time of the mouse to lick a foot or jump is measured at 60, 40 and 20 minutes before and 30, 60, 90, and 120 minutes after administration of the test compound. The "normal" reaction time is measured as the median of the three pretreatment reaction times. A positive response consists of a reaction time greater than twice the normal time at any of the post treatment times. A dose of the test compound is considered active when 50 percent or more of the animals used show a positive response.

Test [3] relates to mice. As to the kind of experiment: Tail Clip Test. In kind it is in vivo, mouse. To be noted: for ED50: Mus musculus, po, i.g., analgesic effect, read-out: Tail Clip (TC) ED50; for Relative Constipation Specificity TC/CT: ratio of Tail Clip ED50 to Cecal Test ED50.

Consider `OC1(c2ccccc2)CCN(CCC(c2ccccc2)(c2ccccc2)c2ccccc2)CC1` [I, 1-(3,3,3-triphenylpropyl)-4-hydroxy-4-phenylpiperidine], for which the ED50 in test [1] was 0.39 mg/kg. Also, in test [2], the ED50 is roughly 3 mg/kg and the “Relative Constipation Specificity HP/CT” value amounted to 7.6. Besides, in test [3], the ED50 is roughly 3 mg/kg and the “Relative Constipation Specificity TC/CT” value is 7.6.
For the compound `OC1(Cc2ccccc2)CCN(CCC(c2ccccc2)(c2ccccc2)c2ccccc2)CC1` [II, 1-(3,3,3-triphenylpropyl)-4-hydroxy-4-benzylpiperidine], the ED50 in test [1] is 0.6 mg/kg. For the same compound, in test [2], the ED50 was roughly 400 mg/kg and the “Relative Constipation Specificity HP/CT” value turned out to be 667. Further, in test [3], the ED50 was roughly 400 mg/kg and the “Relative Constipation Specificity TC/CT” value is 667.

The record behind these values is US4116963A, “3,3,3-Triarylalkyl-4-phenylalkyl-4-hydroxy piperidines and related compounds” (G.D. Searle & Co., priority 1977, dated 1978).
